Results from ChEMBL document CHEMBL1156714, “Microwave induced synthesis of novel 8,9-dihydro-7H-pyrimido[4,5-b][1,4]diazepines as potential antitumor agents” (2008).
Calls of active or inactive are those of the source. The calls are words filed in the database; no cut-off is given here.

Columns and labels:
NCI-60 = experiment: Growth inhibition of human NCI-60 cells at 1.0 uM; assay type: functional, cell-based
[1] = Growth inhibition of human HL60(TB) cells after 48 hrs by SRB assay; assay type: functional, HL-60(TB); conditions: Homo sapiens, HL-60, 48 h
SR = experiment: Growth inhibition of human SR cells after 48 hrs by SRB assay; assay type: functional
EKVX = experiment: Growth inhibition of human EKVX cells after 48 hrs by SRB assay; assay type: functional
NCI-H226 = experiment: Growth inhibition of human NCI-H226 cells after 48 hrs by SRB assay; assay type: functional; conditions: NCI-H226, 48 h
NCI-H322M = experiment: Growth inhibition of human NCI-H322M cells after 48 hrs by SRB assay; assay type: functional
NCI-H460 = experiment: Growth inhibition of human NCI-H460 cells after 48 hrs by SRB assay; assay type: functional; conditions: NCI-H460, 48 h
NCI-H522 = experiment: Growth inhibition of human NCI-H522 cells after 48 hrs by SRB assay; assay type: functional; conditions: NCI-H522, 48 h
COLO 205 = experiment: Growth inhibition of human COLO205 cells after 48 hrs by SRB assay; assay type: functional; conditions: COLO 205, 48 h
HCC 2998 = experiment: Growth inhibition of human HCC2998 cells after 48 hrs by SRB assay; assay type: functional; conditions: HCC 2998, 48 h
HT-29 = experiment: Growth inhibition of human HT29 cells after 48 hrs by SRB assay; assay type: functional; conditions: HT-29, 48 h
KM12 = experiment: Growth inhibition of human KM12 cells after 48 hrs by SRB assay; assay type: functional; conditions: KM12, 48 h
SW-620 = experiment: Growth inhibition of human SW620 cells after 48 hrs by SRB assay; assay type: functional; conditions: SW-620, 48 h
SF-268 = experiment: Growth inhibition of human SF268 cells after 48 hrs by SRB assay; assay type: functional; conditions: SF-268, 48 h
SF-295 = experiment: Growth inhibition of human SF295 cells after 48 hrs by SRB assay; assay type: functional; conditions: SF-295, 48 h
SF-539 = experiment: Growth inhibition of human SF539 cells after 48 hrs by SRB assay; assay type: functional; conditions: SF-539, 48 h
SNB-75 = experiment: Growth inhibition of human SNB75 cells after 48 hrs by SRB assay; assay type: functional; conditions: SNB-75, 48 h
U-251 = experiment: Growth inhibition of human U251 cells after 48 hrs by SRB assay; assay type: functional; conditions: U-251, 48 h
LOX IMVI = experiment: Growth inhibition of human LOX IMVI cells after 48 hrs by SRB assay; assay type: functional
Malme-3M = experiment: Growth inhibition of human MALME-3M cells after 48 hrs by SRB assay; assay type: functional
SK-MEL-28 = experiment: Growth inhibition of human SK-MEL-28 cells after 48 hrs by SRB assay; assay type: functional; conditions: SK-MEL-28, 48 h
SK-MEL-5 = experiment: Growth inhibition of human SK-MEL-5 cells after 48 hrs by SRB assay; assay type: functional; conditions: SK-MEL-5, 48 h
UACC-62 = experiment: Growth inhibition of human UACC62 cells after 48 hrs by SRB assay; assay type: functional; conditions: UACC-62, 48 h
IGROV-1 = experiment: Growth inhibition of human IGROV1 cells after 48 hrs by SRB assay; assay type: functional; conditions: IGROV-1, 48 h
[2] = Growth inhibition of human OVACR3 cells after 48 hrs by SRB assay; assay type: functional
[3] = Growth inhibition of human OVACR4 cells after 48 hrs by SRB assay; assay type: functional
[4] = Growth inhibition of human […] cells after 48 hrs by SRB assay; assay type: functional
SK-OV-3 = experiment: Growth inhibition of human SK-OV-3 cells after 48 hrs by SRB assay; assay type: functional; conditions: SK-OV-3, 48 h
A498 = experiment: Growth inhibition of human A498 cells after 48 hrs by SRB assay; assay type: functional; conditions: A498, 48 h
ACHN = experiment: Growth inhibition of human ACHN cells after 48 hrs by SRB assay; assay type: functional
RXF 393 = experiment: Growth inhibition of human […] cells after 48 hrs by SRB assay; assay type: functional; conditions: RXF 393, 48 h
SN12C = experiment: Growth inhibition of human SN12C cells after 48 hrs by SRB assay; assay type: functional
TK-10 = experiment: Growth inhibition of human TK10 cells after 48 hrs by SRB assay; assay type: functional; conditions: TK-10, 48 h
DU-145 = experiment: Growth inhibition of human DU145 cells after 48 hrs by SRB assay; assay type: functional; conditions: DU-145, 48 h
MCF7 = experiment: Growth inhibition of human MCF7 cells after 48 hrs by SRB assay; assay type: functional; conditions: MCF7, 48 h
NCI/ADR-RES = experiment: Growth inhibition of human NCI/ADR-RES cells after 48 hrs by SRB assay; assay type: functional
MDA-MB-231 = experiment: Growth inhibition of human MDA-MB-231 cells after 48 hrs by SRB assay; assay type: functional; conditions: MDA-MB-231, 48 h
Hs-578T = experiment: Growth inhibition of human HS578T cells after 48 hrs by SRB assay; assay type: functional
MDA-MB-435 = experiment: Growth inhibition of human MDA-MB-435 cells after 48 hrs by SRB assay; assay type: functional; conditions: MDA-MB-435, 48 h
T47D = experiment: Growth inhibition of human T47D cells after 48 hrs by SRB assay; assay type: functional
MDA-MB-468 = experiment: Growth inhibition of human MDA-MB-468 cells after 48 hrs by SRB assay; assay type: functional; conditions: MDA-MB-468, 48 h
[5] = read-out: LC50 (the source's name)

Cc1ccc(C2=Nc3c(N)ncnc3NC(c3ccc4c(c3)OCO4)C2)cc1 (racemic)
Activity (NCI-60): Active | GI50 [1]: 0.72 µM | CC50 [1, 5]: > 100 µM | GI50 (SR): 0.25 µM | LC50 (concentration killing 50% of cells) (SR): > 100 µM | GI50 (EKVX): 16.2 µM | CC50 (EKVX; [5]): > 100 µM | GI50 (NCI-H226): 12.6 µM | CC50 (NCI-H226; [5]): > 100 µM | GI50 (NCI-H322M): 16.5 µM | CC50 (NCI-H322M; [5]): > 100 µM | GI50 (NCI-H460): 3.59 µM | CC50 (NCI-H460; [5]): > 100 µM | GI50 (NCI-H522): 3.67 µM | CC50 (NCI-H522; [5]): > 100 µM | GI50 (COLO 205): 3.47 µM | CC50 (COLO 205; [5]): > 100 µM | GI50 (HCC 2998): 6.29 µM | LC50 (concentration killing 50% of cells) (HCC 2998): > 100 µM | GI50 (HT-29): 3.81 µM | CC50 (HT-29; [5]): > 100 µM | GI50 (KM12): 3.79 µM | CC50 (KM12; [5]): 75.1 µM | GI50 (SW-620): 3.56 µM | CC50 (SW-620; [5]): > 100 µM | GI50 (SF-268): 4.06 µM | LC50 (50% lethal concentration) (SF-268): 52.2 µM | GI50 (SF-295): 4.98 µM | LC50 (SF-295): > 100 µM | GI50 (SF-539): 4.98 µM | CC50 (SF-539; [5]): 69.9 µM | GI50 (SNB-75): 4.55 µM | CC50 (SNB-75; [5]): > 100 µM | GI50 (U-251): 4.55 µM | CC50 (U-251; [5]): 44.5 µM | GI50 (LOX IMVI): 6.38 µM | CC50 (LOX IMVI; [5]): 81.5 µM | GI50 (Malme-3M): 3.01 µM | CC50 (Malme-3M; [5]): > 100 µM | GI50 (SK-MEL-28): 10.2 µM | CC50 (SK-MEL-28; [5]): > 100 µM | GI50 (SK-MEL-5): 3.85 µM | CC50 (SK-MEL-5; [5]): > 100 µM | GI50 (UACC-62): 4.09 µM | CC50 (UACC-62; [5]): > 100 µM | GI50 (IGROV-1): 3.34 µM | CC50 (IGROV-1; [5]): > 100 µM | GI50 [2]: 2.75 µM | LC50 [2]: 23.3 µM | GI50 [3]: 17.7 µM | LC50 [3]: > 100 µM | GI50 [4]: 13.5 µM | CC50 [4, 5]: > 100 µM | GI50 (SK-OV-3): 15.8 µM | CC50 (SK-OV-3; [5]): > 100 µM | GI50 (A498): 6.33 µM | LC50 (A498): > 100 µM | GI50 (ACHN): 7.74 µM | LC50 (lethal concentration 50%) (ACHN): > 100 µM | GI50 (RXF 393): 3.5 µM | CC50 (RXF 393; [5]): > 100 µM | GI50 (SN12C): 8.61 µM | CC50 (SN12C; [5]): > 100 µM | GI50 (TK-10): 4.47 µM | CC50 (TK-10; [5]): 69.7 µM | GI50 (DU-145): 4.52 µM | CC50 (DU-145; [5]): 46.7 µM | GI50 (MCF7): 3.42 µM | LC50 (MCF7): > 100 µM | GI50 (NCI/ADR-RES): 3.52 µM | CC50 (NCI/ADR-RES; [5]): > 100 µM | GI50 (MDA-MB-231): 4.37 µM | CC50 (MDA-MB-231; [5]): 55.6 µM | GI50 (Hs-578T): 7.28 µM | CC50 (Hs-578T; [5]): > 100 µM | GI50 (MDA-MB-435): 1.15 µM | CC50 (MDA-MB-435; [5]): 90.8 µM | GI50 (T47D): 5.72 µM | CC50 (T47D; [5]): > 100 µM | GI50 (MDA-MB-468): 3.68 µM | CC50 (MDA-MB-468; [5]): > 100 µM
